Assay results reported in patent US20110039762A1, “TARGETED ANTIMICROBIAL MOIETIES” (C3 JIAN, INC., priority 2009, published 2011).
Entries after “also recorded” stand apart in the source; their conditions may differ.

Tests used:
[1] = test system: B. subtilis; assay: Kill or inhibit growth/proliferation; morphology, biofilm and growth disruption (Tables 5, 6); type: cell-based, Bacillus subtilis; parameters: key: A: Peptide aggregates; B: Less hyphal formation; Clumps; Diffuse clumps and small polyps; F: Diffuse growth; H: Thin; I: Growth inhibition; Microcolony formation; Rippled; Small polyps; Thick; W: Halo formation on top, microlonies on bottom; also: test concentration or dose not given here
[2] = test system: MRSA; assay: as above; type: cell-based, Methicillin-resistant Staphylococcus aureus; parameters: key: A: Peptide aggregates; B: Less hyphal formation; Clumps; Diffuse clumps and small polyps; F: Diffuse growth; H: Thin; I: Growth inhibition; Microcolony formation; Rippled; Small polyps; Thick; W: Halo formation on top, microlonies on bottom; also: test concentration or dose not given here
[3] = test system: microorganisms (e.g., bacteria, yeasts, fungi); assay: Targeting peptide binding to target microorganisms (Table 3); conditions: preferably 1x PBS
[4] = test system: microorganisms; assay: Peptides having multiple activities (targeting/binding, antimicrobial, growth or phenotype altering)
Text: In certain embodiments, peptides described herein can have multiple activities. Thus for example, a peptide can have both binding/targeting activity and antimicrobial activity. Such peptides can be used, e.g., in a chimeric construct, for any or all of these properties. Thus, for example, a peptide designated “B” in Table 8 can be used as a targeting peptide. If it is also designated G or M it can also be used for antimicrobial activity.

[5] = test system: S. epidermidis; assay: Kill or inhibit growth/proliferation; morphology, biofilm and growth disruption (Tables 5, 6); type: cell-based, Staphylococcus epidermidis; parameters: key: A: Peptide aggregates; B: Less hyphal formation; Clumps; Diffuse clumps and small polyps; F: Diffuse growth; H: Thin; I: Growth inhibition; Microcolony formation; Rippled; Small polyps; Thick; W: Halo formation on top, microlonies on bottom; also: test concentration or dose not given here
[6] = test system: S. pneumoniae; assay: as above; type: cell-based, Streptococcus pneumoniae; parameters: key: A: Peptide aggregates; B: Less hyphal formation; Clumps; Diffuse clumps and small polyps; F: Diffuse growth; H: Thin; I: Growth inhibition; Microcolony formation; Rippled; Small polyps; Thick; W: Halo formation on top, microlonies on bottom; also: test concentration or dose not given here
[7] = test system: C. jeikeium; assay: as above; type: cell-based, Corynebacterium jeikeium; parameters: key: A: Peptide aggregates; B: Less hyphal formation; Clumps; Diffuse clumps and small polyps; F: Diffuse growth; H: Thin; I: Growth inhibition; Microcolony formation; Rippled; Small polyps; Thick; W: Halo formation on top, microlonies on bottom; also: test concentration or dose not given here
[8] = test system: M. luteus; assay: as above; type: cell-based, Micrococcus luteus; parameters: key: A: Peptide aggregates; B: Less hyphal formation; Clumps; Diffuse clumps and small polyps; F: Diffuse growth; H: Thin; I: Growth inhibition; Microcolony formation; Rippled; Small polyps; Thick; W: Halo formation on top, microlonies on bottom; also: test concentration or dose not given here
[9] = test system: C. jejuni; assay: as above; type: cell-based, Campylobacter jejuni; parameters: key: A: Peptide aggregates; B: Less hyphal formation; Clumps; Diffuse clumps and small polyps; F: Diffuse growth; H: Thin; I: Growth inhibition; Microcolony formation; Rippled; Small polyps; Thick; W: Halo formation on top, microlonies on bottom; also: test concentration or dose not given here
[10] = microorganism(s) the targeting peptide binds, peptide binding conducted in aqueous buffers varied by peptide solubility
[11] = microorganism the targeting peptide binds, binding in aqueous buffers varied by peptide solubility

PF-549: peptide having multiple activities (chain 1 TGIGPIARPIEHGLDS; chain 2 TGIGPIARPIEHGLDS; Peptide with targeting and/or antimicrobial activity)
Organism, effect [1]: B. subtilis (D) | Organism, effect [2]: MRSA (C) | Target(s) [3, 10]: E. coli; also recorded: C. albicans; also recorded: S. pneumoniae; also recorded: C. jeikeium | Activities [4]: G B

PF-296 (GAFGMPSIKTNTICGEKGKFISACDAWLSNLK; Peptide with targeting and/or antimicrobial activity)
Organism, effect [1]: B. subtilis (C) | Organism, effect [5]: S. epidermidis (C)

PF-342 (AFSGVYKTLIVYTRRK; Peptide with targeting and/or antimicrobial activity)
Organism, effect [1]: B. subtilis (C) | Organism, effect [5]: S. epidermidis (C)

PF-339 (KKIDILINKYMYLSK; Peptide with targeting and/or antimicrobial activity)
Organism, effect [1]: B. subtilis (C) | Organism, effect [5]: S. epidermidis (C)

PF-306: peptide having multiple activities (GCILPHKKDNYNYIMSKFQDLVKITSKK; Peptide with targeting and/or antimicrobial activity)
Organism, effect [1]: B. subtilis (C) | Target(s) ([3]; microorganism(s) the targeting peptide binds, binding in aqueous buffers depending on peptide solubility): C. difficile | Activities [4]: G B

PF-552: peptide having multiple activities (chain 1 ELDKADAALGPAKNLAPLDVINRS; chain 2 ELDKADAALGPAKNLAPLDVINRS; Peptide with targeting and/or antimicrobial activity)
Organism, effect [1]: B. subtilis (D) | Target(s) [3, 10]: S. pneumoniae | Activities [4]: G B

PF-565 (RAEAEAQRQAEADAKRKAEEAARL; Peptide with targeting and/or antimicrobial activity)
Organism, effect [1]: B. subtilis (D) | Organism, effect [2]: MRSA (C)

PF-561 (ESLEADVQAELDTEAAKYPALPASF; Peptide with targeting and/or antimicrobial activity)
Organism, effect [1]: B. subtilis (D) | Organism, effect [2]: MRSA (M)

PF-557: peptide having multiple activities (chain 1 AANKAREQAAAEAKRKAEEQAR; chain 2 AANKAREQAAAEAKRKAEEQAR; Peptide with targeting and/or antimicrobial activity)
Organism, effect [1]: B. subtilis (D) | Target(s) [3, 10]: S. pneumoniae | Activities [4]: G B

PF-303 (EYPWSWISEPWPWDKSFYK; Peptide with targeting and/or antimicrobial activity)
Organism, effect [1]: B. subtilis (C)

PF-002: peptide having multiple activities (chain 1 NDDAQ; chain 2 NDDAQ; Peptide with targeting and/or antimicrobial activity)
Organism, effect [1]: B. subtilis (R) | Organism, effect [6]: S. pneumoniae (H) | Target(s) [3, 11]: S. epidermidis; also recorded: P. mirabilis; also recorded: C. albicans; also recorded: C. jeikeium; also recorded: C. jejuni | Activities [4]: G B

PF-567: peptide having multiple activities (chain 1 QQRVKAVDASLSQVSTQVSGAVASA; chain 2 QQRVKAVDASLSQVSTQVSGAVASA; Peptide with targeting and/or antimicrobial activity)
Organism, effect [7]: C. jeikeium (C) | Organism, effect [8]: M. luteus (C) | Organism, effect [2]: MRSA (D) | Organism, effect [6]: S. pneumoniae (D) | Organism, effect [9]: C. jejuni (D) | Target(s) [3, 10]: S. epidermidis and P. aeruginosa and C. albicans and MRSA and S. pneumoniae and C. jeikeium | Activities [4]: G B

PF-554: peptide having multiple activities (chain 1 AKNFLTRTAEEIGEQAVREGNINGP; chain 2 AKNFLTRTAEEIGEQAVREGNINGP; Peptide with targeting and/or antimicrobial activity)
Organism, effect [1]: B. subtilis (D) | Target(s) [3, 10]: S. pneumoniae | Activities [4]: G B

PF-335 (AAYPIEDWSDWYEDFFIMLSNI; Peptide with targeting and/or antimicrobial activity)
Organism, effect [1]: B. subtilis (C) | Organism, effect [5]: S. epidermidis (C)

PF-070: peptide having multiple activities (SMVKSEIVDLLNGEDNDD; Peptide with targeting and/or antimicrobial activity)
Organism, effect [1]: B. subtilis (D) | Target(s) [3, 11]: S. epidermidis; also recorded: C. jejuni | Activities [4]: G B

PF-574 (LVKSGKLESPYEHSEHLTLSQEKGLE; Peptide with targeting and/or antimicrobial activity)
Organism, effect [1]: B. subtilis (D)

PF-572: peptide having multiple activities (chain 1 WRASKGLPGFKAG; chain 2 WRASKGLPGFKAG; Peptide with targeting and/or antimicrobial activity)
Organism, effect [1]: B. subtilis (D) | Organism, effect [6]: S. pneumoniae (R) | Target(s) [3, 10]: S. epidermidis; also recorded: M. luteus; also recorded: E. coli; also recorded: S. pneumoniae; also recorded: C. jeikeium | Activities [4]: G B

PF-571 (SDLLYYPNENREDSPAGVVKEVKE; Peptide with targeting and/or antimicrobial activity)
Organism, effect [1]: B. subtilis (D)

PF-550: peptide having multiple activities (chain 1 STENGWQEFESYADVGVDPRRYVPL; chain 2 STENGWQEFESYADVGVDPRRYVPL; Peptide with targeting and/or antimicrobial activity)
Organism, effect [1]: B. subtilis (D) | Target(s) [3, 10]: S. pneumoniae | Activities [4]: G B

PF-670 (chain 1 TVIVAPMHSGV; chain 2 TVIVAPMHSGV; Peptide with targeting and/or antimicrobial activity)
Organism, effect (morphology, biofilm and growth disruption) [1]: B. subtilis (H) | Organism, effect (morphology, biofilm and growth disruption) [6]: S. pneumoniae (H)

PF-569: peptide having multiple activities (chain 1 KSKISEYTEKEFLEFVEDIYTNNK; chain 2 KSKISEYTEKEFLEFVEDIYTNNK; Peptide with targeting and/or antimicrobial activity)
Organism, effect [1]: B. subtilis (D) | Target(s) [3, 10]: M. luteus; also recorded: P. mirabilis; also recorded: S. pneumoniae; also recorded: E. faecalis; also recorded: C. jeikeium | Activities [4]: G B
